According to patent US20140088192A1, “SUBCUTANEOUSLY INFUSIBLE LEVODOPA PRODRUG COMPOSITIONS AND METHODS OF INFUSION” (SynAgile Corporation, priority 2010, published 2014):

Legend:
[1] = Estimated / projected shelf life and operational life (time to LD saturation); settings: for time remaining precipitate free: after 18 months refrigerated storage
Description: To minimize hydrolysis and LD precipitation, the LDE salt can be stored in its dry solid form, and dissolved in water or in an aqueous solution prior to use. Alternatively and preferably, the LDE salt can be dissolved, and stored as an aqueous solution at a pH and at a temperature where the rate of hydrolysis is slow. […] The operational life, meaning the life of the infused solution, is similarly pH dependent. The pH of a subcutaneously infused solution can be generally greater than about 4.0. […] To extend the shelf life, the solution may be optionally stored at a temperature below about 25° C., for example it may be refrigerated at about 5±3° C.
After flushing with nitrogen, the solution was kept for 7 days at 23±2° C. in a vial sealed with a grey elastomeric, substantially oxygen impermeable septum. […] An operational life of 4 days suffices for infusion.
After flushing with nitrogen, the solution was kept in a vial sealed with a grey, elastomeric oxygen impermeable septum.
After flushing with nitrogen, the solution was kept in a vial sealed with a grey elastomeric, oxygen impermeable septum.

[2] = pH change of LDEE.HCl solutions on holding; format: physicochemical; settings: for pH of about 0.48M LDEE•HCl Solution / pH of about 0.95M LDEE•HCl Solution: 40° C.; for pH: about 2.7 M
Method: An about 2.6 M LDEE.HCl pH 2.1 aqueous solution was prepared by dissolving 1.506 g LDEE in 1.3 mL of aqueous 5M HCl and adjusting the pH by adding 0.24 μL of 1 M HCl. […] After 24 hours, the pH was 2.0.
To determine whether hydrolysis of subcutaneously infusible solutions of 0.95 M and 0.48 M LDEE.HCl concentrations excessively lowers their pH or drives their LD concentration beyond the saturation point where LD could precipitate, their starting pH of less <3 adjusted by adding an about 1.5 M trisodium citrate solution, were kept at 40° C. for 24 hrs.

[3] = Precipitation of LD from / clarity of LDEE solutions on holding; settings: for appearance of infused solution after storage: 2.3 M
Method: 150 mg of LDEE was dissolved in 3 mL of physiological saline (0.90% weight/volume of NaCl/water) at about 23° C., then at about 37° C. an additional amount of 22 mg of LDEE was added for a total LDEE concentration of about 57.3 mg/mL or about 0.25M.
At the ambient temperature of about 23° C., 226 mg of LDEE was dissolved in 1 mL of 1 M HCl. To the formed aqueous LDEE.HCl solution an additional amount of about 184 mg LDEE was added, followed by about 0.1 mL deionized water.
At the ambient temperature of about 23° C., about 113 mg of LDEE was dissolved in 1 mL of 1 M HCl. To the formed aqueous LDEE.HCl solution an additional amount of about 87 mg LDEE was added, followed by about 0.1 mL distilled water.
At the ambient temperature of about 23° C., about 226 mg of LDEE was dissolved in 1 mL of 1 M acetic acid. To the formed aqueous LDEE acetate salt solution an additional amount of about 168 mg LDEE was added. […] The pH of the resulting suspension was about 7.01 at about 26.4° C.
1.7 g of LDEE (7.5 millimoles) was dissolved in 1.405 mL of aqueous 5M HCl, then enough trisodium citrate was added to increase the pH to 5.5.
After flushing with nitrogen, the solution was kept for 7 days at 23±2° C. in a vial sealed with a grey elastomeric, substantially oxygen impermeable septum.

With `CCOC(=O)[C@@H](N)Cc1ccc(O)c(O)c1.Cl` [LDEE.HCl, LDEE Hydrochloride] the “Estimated pH 4.5 operational life at 30° C.” value ([1]; about 2.0 M LDEE.HCl solution) was 4 days, the “Estimated pH 4.5 operational life at 37° C.” value ([1]; about 2.0 M LDEE.HCl solution) was 2 days and the operational life ([1]; about 2.7 M, about pH 4.49, 40° C.) was > 48 h. The residual operational life ([1]; after 18 months at 4° C., then operational ambient temperature) was “more than 3 days”, the “time remaining precipitate free” value ([1]; pH raised to about 4.2±0.3, 30° C.) was “more than 3 days” and the “time remaining precipitate free” value ([1]; pH raised to about 4.2±0.3, 37° C.) was “more than 2 days”. For the same compound, the residual operational life ([1]; after one year at 4° C., then 23° C. ambient) was “greater than 4 days”, the “projected time free of LD precipitate” value ([1]; refrigerated pH 4.0 solution, 2.4 M) was “about 50 weeks” and the “pH of about 0.48M LDEE•HCl Solution” value ([2]; 0 h, starting pH 4.19) was 4.19. The “pH of about 0.95M LDEE•HCl Solution” value ([2]; 0 h, starting pH 4.2) was 4.2, the “pH of about 0.95M LDEE•HCl Solution” value ([2]; 0 h, starting pH 4.4) was 4.4 and the “pH of about 0.48M LDEE•HCl Solution” value ([2]; 0 h, starting pH 4.45) was 4.45. For the same compound, the “pH of about 0.48M LDEE•HCl Solution” value ([2]; 0 h, starting pH 4.59) was 4.59, the “pH of about 0.95M LDEE•HCl Solution” value ([2]; 0 h, starting pH 4.6) was 4.6 and the “pH of about 0.48M LDEE•HCl Solution” value ([2]; 0 h, starting pH 4.78) was 4.78. The “pH of about 0.95M LDEE•HCl Solution” value ([2]; 0 h, starting pH 4.82) was 4.82, the “pH of about 0.48M LDEE•HCl Solution” value ([2]; 0 h, starting pH 5.01) was 5.01 and the “pH of about 0.95M LDEE•HCl Solution” value ([2]; 0 h, starting pH 5.01) was 5.01. For the same compound, the “pH of about 0.95M LDEE•HCl Solution” value ([2]; 0 h, starting pH 5.3) was 5.3, the “pH of about 0.48M LDEE•HCl Solution” value ([2]; 0 h, starting pH 5.31) was 5.31 and the “pH of about 0.95M LDEE•HCl Solution” value ([2]; 0 h, starting pH 5.6) was 5.6. The “pH of about 0.48M LDEE•HCl Solution” value ([2]; 0 h, starting pH 5.61) was 5.61, the “pH of about 0.48M LDEE•HCl Solution” value ([2]; 2 h, starting pH 4.19) was 4.43 and the “pH of about 0.95M LDEE•HCl Solution” value ([2]; 2 h, starting pH 4.2) was 4.19. For the same compound, the “pH of about 0.95M LDEE•HCl Solution” value ([2]; 2 h, starting pH 4.4) was 4.38, the “pH of about 0.48M LDEE•HCl Solution” value ([2]; 2 h, starting pH 4.45) was 4.58 and the “pH of about 0.48M LDEE•HCl Solution” value ([2]; 2 h, starting pH 4.59) was 4.68. The “pH of about 0.95M LDEE•HCl Solution” value ([2]; 2 h, starting pH 4.6) was 4.61, the “pH of about 0.48M LDEE•HCl Solution” value ([2]; 2 h, starting pH 4.78) was 4.85 and the “pH of about 0.95M LDEE•HCl Solution” value ([2]; 2 h, starting pH 4.82) was 4.74. For the same compound, the “pH of about 0.48M LDEE•HCl Solution” value ([2]; 2 h, starting pH 5.01) was 5.01, the “pH of about 0.95M LDEE•HCl Solution” value ([2]; 2 h, starting pH 5.01) was 5.01 and the “pH of about 0.95M LDEE•HCl Solution” value ([2]; 2 h, starting pH 5.3) was 5.34. The “pH of about 0.48M LDEE•HCl Solution” value ([2]; 2 h, starting pH 5.31) was 5.42, the “pH of about 0.95M LDEE•HCl Solution” value ([2]; 2 h, starting pH 5.6) was 5.68 and the “pH of about 0.48M LDEE•HCl Solution” value ([2]; 2 h, starting pH 5.61) was 5.65. For the same compound, the “pH of about 0.48M LDEE•HCl Solution” value ([2]; 6 h, starting pH 4.19) was 4.34, the “pH of about 0.95M LDEE•HCl Solution” value ([2]; 6 h, starting pH 4.2) was 4.02 and the “pH of about 0.95M LDEE•HCl Solution” value ([2]; 6 h, starting pH 4.4) was 4.28. For the same compound, the “pH of about 0.48M LDEE•HCl Solution” value ([2]; 6 h, starting pH 4.45) was 4.54, the “pH of about 0.48M LDEE•HCl Solution” value ([2]; 6 h, starting pH 4.59) was 4.6 and the “pH of about 0.95M LDEE•HCl Solution” value ([2]; 6 h, starting pH 4.6) was 4.53. The “pH of about 0.48M LDEE•HCl Solution” value ([2]; 6 h, starting pH 4.78) was 4.71, the “pH of about 0.95M LDEE•HCl Solution” value ([2]; 6 h, starting pH 4.82) was 4.69 and the “pH of about 0.48M LDEE•HCl Solution” value ([2]; 6 h, starting pH 5.01) was 4.9. For the same compound, the “pH of about 0.95M LDEE•HCl Solution” value ([2]; 6 h, starting pH 5.01) was 4.84, the “pH of about 0.95M LDEE•HCl Solution” value ([2]; 6 h, starting pH 5.3) was 5.21 and the “pH of about 0.48M LDEE•HCl Solution” value ([2]; 6 h, starting pH 5.31) was 5.23. For the same compound, the “pH of about 0.95M LDEE•HCl Solution” value ([2]; 6 h, starting pH 5.6) was 5.53, the “pH of about 0.48M LDEE•HCl Solution” value ([2]; 6 h, starting pH 5.61) was 5.53 and the “pH of about 0.95M LDEE•HCl Solution” value ([2]; 24 h, starting pH 4.2) was 3.86. For the same compound, the “pH of about 0.95M LDEE•HCl Solution” value ([2]; 24 h, starting pH 4.4) was 4.03, the “pH of about 0.48M LDEE•HCl Solution” value ([2]; 24 h, starting pH 4.45) was 4.19 and the “pH of about 0.48M LDEE•HCl Solution” value ([2]; 24 h, starting pH 4.59) was 4.32. For the same compound, the “pH of about 0.95M LDEE•HCl Solution” value ([2]; 24 h, starting pH 4.6) was 4.22, the “pH of about 0.48M LDEE•HCl Solution” value ([2]; 24 h, starting pH 4.78) was 4.52 and the “pH of about 0.95M LDEE•HCl Solution” value ([2]; 24 h, starting pH 4.82) was 4.36. For the same compound, the “pH of about 0.48M LDEE•HCl Solution” value ([2]; 24 h, starting pH 5.01) was 4.6, the “pH of about 0.95M LDEE•HCl Solution” value ([2]; 24 h, starting pH 5.01) was 4.58 and the “pH of about 0.95M LDEE•HCl Solution” value ([2]; 24 h, starting pH 5.3) was 4.8. For the same compound, the “pH of about 0.48M LDEE•HCl Solution” value ([2]; 24 h, starting pH 5.31) was 4.91, the “pH of about 0.95M LDEE•HCl Solution” value ([2]; 24 h, starting pH 5.6) was 5.19 and the “pH of about 0.48M LDEE•HCl Solution” value ([2]; 24 h, starting pH 5.61) was 5.23. For the same compound, the “pH after 24 hours” value ([2]; about 2.6 M, starting pH 2.1, 23±2° C.) was 2.0, the pH ([2]; start pH about 4.49, 24 h at 40° C.) was 4.2 and the pH ([2]; start pH about 4.49, 48 h at 40° C.) was 4.0. The “appearance of infused solution after storage” value ([3]; citrate pH 4.5, 2.5 days at room temperature and 7 weeks in a refrigerator) was “colorless and clear”, the “appearance of infused solution after storage” value ([3]; citrate pH 4.5, about 3 days at room temperature and about 3 months in a refrigerator) was “colorless and clear” and the “precipitation of LD” value ([3]; about 0.7 M LDEE + LDEE.HCl, pH about 6.87, 37° C., 3 hours) was “no precipitation”. The “precipitation of LD” value ([3]; about 0.7 M LDEE + LDEE.HCl, pH about 6.87, 37° C., 16 hours) was “extensive precipitation of LD”, the “precipitation of LD” value ([3]; about 1.3 M LDEE + LDEE.HCl, pH about 6.75, 37° C., 3 hours) was “no precipitation” and the “precipitation of LD” value ([3]; about 1.3 M LDEE + LDEE.HCl, pH about 6.75, 37° C., 16 hours) was “extensive precipitation of LD”.
